# Results reported in ChEMBL document CHEMBL2021846, “Symplocin A, a linear peptide from the Bahamian cyanobacterium Symploca sp. Configurational analysis of N,N-dimethylamino acids by chiral-phase HPLC of naphthacyl esters” (J Nat Prod, 2012).
# The source made the active and inactive calls. No cut-off for these calls is given here.
# Tests used:
# HCT-116 = assay: Cytotoxicity against human HCT116 cells; format: functional, cell-based
# Cathepsin E = biological target: T1, Cathepsin E (Homo sapiens, UniProt P14091); assay: Inhibition of cathepsin E
# T1 sequence (P14091 whole entry): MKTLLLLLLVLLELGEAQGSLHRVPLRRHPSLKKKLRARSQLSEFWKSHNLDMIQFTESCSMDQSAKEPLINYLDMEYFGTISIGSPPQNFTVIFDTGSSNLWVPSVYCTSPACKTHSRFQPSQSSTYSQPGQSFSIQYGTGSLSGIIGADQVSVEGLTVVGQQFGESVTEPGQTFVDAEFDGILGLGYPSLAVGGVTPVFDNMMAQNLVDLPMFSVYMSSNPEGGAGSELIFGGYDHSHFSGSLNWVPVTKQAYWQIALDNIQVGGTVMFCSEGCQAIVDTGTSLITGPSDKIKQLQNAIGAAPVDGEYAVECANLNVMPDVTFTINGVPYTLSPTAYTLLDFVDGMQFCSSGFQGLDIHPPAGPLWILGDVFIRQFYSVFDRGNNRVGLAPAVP
compound,measurement,setting,value
CC[C@@H](C)[C@H](C(=O)O[C@@H](C(=O)N[C@@H](Cc1ccc(O)cc1)C(=O)N[C@@H](CO)C(=O)N[C@@H](CC(C)C)[C@H](O)CC(=O)N[C@H](C(=O)NCC(=O)N(C)[C@H](Cc1ccccc1)C(=O)N1CCC[C@H]1C(=O)OC)C(C)C)C(C)C)N(C)C [SYMPLOCIN A],Activity,HCT-116,inactive
same,IC50,Cathepsin E,0.3 nM
